From PMC8646129 (Biochemistry and Biophysics Reports, 2021)

Biological target: T1, TMEM16B (Mus musculus, UniProt Q8CFW1)
T1 sequence (Q8CFW1 1-1002): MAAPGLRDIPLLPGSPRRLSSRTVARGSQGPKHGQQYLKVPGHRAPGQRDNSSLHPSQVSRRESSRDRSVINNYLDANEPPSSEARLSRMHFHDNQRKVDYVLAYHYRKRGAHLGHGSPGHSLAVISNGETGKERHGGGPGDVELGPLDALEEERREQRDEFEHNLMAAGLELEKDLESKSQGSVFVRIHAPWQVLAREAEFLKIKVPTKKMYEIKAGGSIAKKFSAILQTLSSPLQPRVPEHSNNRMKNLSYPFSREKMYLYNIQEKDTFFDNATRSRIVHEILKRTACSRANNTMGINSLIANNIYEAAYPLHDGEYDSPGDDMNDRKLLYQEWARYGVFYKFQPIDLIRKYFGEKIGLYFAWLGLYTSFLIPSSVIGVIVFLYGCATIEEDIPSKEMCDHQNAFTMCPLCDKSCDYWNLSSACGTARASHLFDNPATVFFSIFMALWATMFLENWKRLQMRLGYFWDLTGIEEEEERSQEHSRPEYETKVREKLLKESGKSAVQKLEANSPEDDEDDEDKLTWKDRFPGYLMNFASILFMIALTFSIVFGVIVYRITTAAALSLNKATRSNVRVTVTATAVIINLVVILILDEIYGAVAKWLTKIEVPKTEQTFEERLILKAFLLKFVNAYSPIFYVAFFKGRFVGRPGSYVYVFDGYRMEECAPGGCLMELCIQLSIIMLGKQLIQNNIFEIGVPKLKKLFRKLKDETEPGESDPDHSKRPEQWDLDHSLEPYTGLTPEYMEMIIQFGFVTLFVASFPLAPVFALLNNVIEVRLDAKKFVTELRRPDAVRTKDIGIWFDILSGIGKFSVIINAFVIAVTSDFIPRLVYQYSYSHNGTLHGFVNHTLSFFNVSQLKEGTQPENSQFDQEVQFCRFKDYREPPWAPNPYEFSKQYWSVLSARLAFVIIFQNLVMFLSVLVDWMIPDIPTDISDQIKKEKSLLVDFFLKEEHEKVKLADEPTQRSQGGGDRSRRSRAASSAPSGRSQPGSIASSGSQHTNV
Assay: whole-cell patch clamp of transfected HEK293 cells
Format: cell-based

## O=C(NC1(c2ccccc2)CC1)c1c(CN2CCC(N3CCCCC3)CC2)c(-c2cccc(C(F)(F)F)c2)nc2cc(Br)ccc12 [GSKb, GSK2193874]
  EC50: 24.2 nM
